Measured values: the NIST ThermoML archive (doi:10.1016/j.jct.2015.01.004)
Where “and” joins values, the source holds several entries; their conditions need not be identical. Identical values can stand only once. Numbers after ± are expanded uncertainties.

Experiment: molar heat capacity at constant pressure; xn = mol fraction of the nth substance listed
Settings: 100 kPa

[Si] [silicon] + [Li]
molar heat capacity at constant pressure (453.6 K, Crystal of intercomponent compound 1, Small sample (50 mg) DSC, x2 = 0.81): 25.67 ± 0.63 J/K/mol
molar heat capacity at constant pressure (460 K, Crystal of intercomponent compound 1, relaxation calorimetry + DSC, x2 = 0.81): 25.6 ± 1 J/K/mol
molar heat capacity at constant pressure (460 K, Crystal of intercomponent compound 2, relaxation calorimetry + DSC, x2 = 0.804): 26.23 ± 1.1 J/K/mol
molar heat capacity at constant pressure (463.31 K, Crystal of intercomponent compound 2, Small sample (50 mg) DSC, x2 = 0.804): 26.1 ± 0.64 J/K/mol and 26.34 ± 0.65 J/K/mol
molar heat capacity at constant pressure (463.5 K, Crystal of intercomponent compound 1, Small sample (50 mg) DSC, x2 = 0.81): 25.45 ± 0.62 J/K/mol
molar heat capacity at constant pressure (463.51 K, Crystal of intercomponent compound 1, Small sample (50 mg) DSC, x2 = 0.81): 25.78 ± 0.63 J/K/mol
molar heat capacity at constant pressure (473.22 K, Crystal of intercomponent compound 2, Small sample (50 mg) DSC, x2 = 0.804): 26.29 ± 0.64 J/K/mol and 26.62 ± 0.65 J/K/mol
molar heat capacity at constant pressure (473.42 K, Crystal of intercomponent compound 1, Small sample (50 mg) DSC, x2 = 0.81): 25.23 ± 0.62 J/K/mol
molar heat capacity at constant pressure (473.43 K, Crystal of intercomponent compound 1, Small sample (50 mg) DSC, x2 = 0.81): 26 ± 0.64 J/K/mol
molar heat capacity at constant pressure (480 K, Crystal of intercomponent compound 1, relaxation calorimetry + DSC, x2 = 0.81): 25.91 ± 1.1 J/K/mol
molar heat capacity at constant pressure (480 K, Crystal of intercomponent compound 2, relaxation calorimetry + DSC, x2 = 0.804): 26.66 ± 1.1 J/K/mol
molar heat capacity at constant pressure (483.13 K, Crystal of intercomponent compound 2, Small sample (50 mg) DSC, x2 = 0.804): 26.48 ± 0.65 J/K/mol and 26.77 ± 0.66 J/K/mol
molar heat capacity at constant pressure (483.33 K, Crystal of intercomponent compound 1, Small sample (50 mg) DSC, x2 = 0.81): 25.45 ± 0.62 J/K/mol
molar heat capacity at constant pressure (483.34 K, Crystal of intercomponent compound 1, Small sample (50 mg) DSC, x2 = 0.81): 26.11 ± 0.64 J/K/mol
molar heat capacity at constant pressure (493.04 K, Crystal of intercomponent compound 2, Small sample (50 mg) DSC, x2 = 0.804): 26.73 ± 0.65 J/K/mol and 26.89 ± 0.66 J/K/mol
molar heat capacity at constant pressure (493.24 K, Crystal of intercomponent compound 1, Small sample (50 mg) DSC, x2 = 0.81): 25.56 ± 0.63 J/K/mol
molar heat capacity at constant pressure (493.26 K, Crystal of intercomponent compound 1, Small sample (50 mg) DSC, x2 = 0.81): 26.32 ± 0.64 J/K/mol
molar heat capacity at constant pressure (500 K, Crystal of intercomponent compound 1, relaxation calorimetry + DSC, x2 = 0.81): 26.22 ± 1.1 J/K/mol
molar heat capacity at constant pressure (500 K, Crystal of intercomponent compound 2, relaxation calorimetry + DSC, x2 = 0.804): 27.09 ± 1.1 J/K/mol
molar heat capacity at constant pressure (502.95 K, Crystal of intercomponent compound 2, Small sample (50 mg) DSC, x2 = 0.804): 26.84 ± 0.66 J/K/mol and 27.04 ± 0.66 J/K/mol
molar heat capacity at constant pressure (503.15 K, Crystal of intercomponent compound 1, Small sample (50 mg) DSC, x2 = 0.81): 25.78 ± 0.63 J/K/mol
molar heat capacity at constant pressure (503.17 K, Crystal of intercomponent compound 1, Small sample (50 mg) DSC, x2 = 0.81): 26.43 ± 0.65 J/K/mol
molar heat capacity at constant pressure (512.86 K, Crystal of intercomponent compound 2, Small sample (50 mg) DSC, x2 = 0.804): 27 ± 0.66 J/K/mol and 27.24 ± 0.67 J/K/mol
molar heat capacity at constant pressure (513.06 K, Crystal of intercomponent compound 1, Small sample (50 mg) DSC, x2 = 0.81): 25.89 ± 0.63 J/K/mol
molar heat capacity at constant pressure (513.08 K, Crystal of intercomponent compound 1, Small sample (50 mg) DSC, x2 = 0.81): 26.54 ± 0.65 J/K/mol
molar heat capacity at constant pressure (520 K, Crystal of intercomponent compound 1, relaxation calorimetry + DSC, x2 = 0.81): 26.54 ± 1.1 J/K/mol
molar heat capacity at constant pressure (520 K, Crystal of intercomponent compound 2, relaxation calorimetry + DSC, x2 = 0.804): 27.52 ± 1.1 J/K/mol
molar heat capacity at constant pressure (522.77 K, Crystal of intercomponent compound 2, Small sample (50 mg) DSC, x2 = 0.804): 27.23 ± 0.67 J/K/mol and 27.49 ± 0.67 J/K/mol
molar heat capacity at constant pressure (522.97 K, Crystal of intercomponent compound 1, Small sample (50 mg) DSC, x2 = 0.81): 26.11 ± 0.64 J/K/mol
molar heat capacity at constant pressure (522.99 K, Crystal of intercomponent compound 1, Small sample (50 mg) DSC, x2 = 0.81): 26.76 ± 0.66 J/K/mol
molar heat capacity at constant pressure (532.68 K, Crystal of intercomponent compound 2, Small sample (50 mg) DSC, x2 = 0.804): 27.46 ± 0.67 J/K/mol and 27.67 ± 0.68 J/K/mol
molar heat capacity at constant pressure (532.88 K, Crystal of intercomponent compound 1, Small sample (50 mg) DSC, x2 = 0.81): 26.21 ± 0.64 J/K/mol
molar heat capacity at constant pressure (532.9 K, Crystal of intercomponent compound 1, Small sample (50 mg) DSC, x2 = 0.81): 26.98 ± 0.66 J/K/mol
molar heat capacity at constant pressure (540 K, Crystal of intercomponent compound 1, relaxation calorimetry + DSC, x2 = 0.81): 26.88 ± 1.1 J/K/mol
molar heat capacity at constant pressure (540 K, Crystal of intercomponent compound 2, relaxation calorimetry + DSC, x2 = 0.804): 27.95 ± 1.1 J/K/mol
molar heat capacity at constant pressure (542.58 K, Crystal of intercomponent compound 2, Small sample (50 mg) DSC, x2 = 0.804): 27.67 ± 0.68 J/K/mol and 27.88 ± 0.68 J/K/mol
molar heat capacity at constant pressure (542.79 K, Crystal of intercomponent compound 1, Small sample (50 mg) DSC, x2 = 0.81): 26.54 ± 0.65 J/K/mol
molar heat capacity at constant pressure (542.81 K, Crystal of intercomponent compound 1, Small sample (50 mg) DSC, x2 = 0.81): 27.31 ± 0.67 J/K/mol
molar heat capacity at constant pressure (552.5 K, Crystal of intercomponent compound 2, Small sample (50 mg) DSC, x2 = 0.804): 27.8 ± 0.68 J/K/mol and 28 ± 0.69 J/K/mol
molar heat capacity at constant pressure (552.7 K, Crystal of intercomponent compound 1, Small sample (50 mg) DSC, x2 = 0.81): 26.76 ± 0.66 J/K/mol
molar heat capacity at constant pressure (552.72 K, Crystal of intercomponent compound 1, Small sample (50 mg) DSC, x2 = 0.81): 27.53 ± 0.67 J/K/mol
molar heat capacity at constant pressure (560 K, Crystal of intercomponent compound 1, relaxation calorimetry + DSC, x2 = 0.81): 27.23 ± 1.1 J/K/mol
molar heat capacity at constant pressure (560 K, Crystal of intercomponent compound 2, relaxation calorimetry + DSC, x2 = 0.804): 28.38 ± 1.1 J/K/mol
molar heat capacity at constant pressure (562.41 K, Crystal of intercomponent compound 2, Small sample (50 mg) DSC, x2 = 0.804): 27.97 ± 0.69 J/K/mol and 28.24 ± 0.69 J/K/mol
molar heat capacity at constant pressure (562.61 K, Crystal of intercomponent compound 1, Small sample (50 mg) DSC, x2 = 0.81): 27.09 ± 0.66 J/K/mol
molar heat capacity at constant pressure (562.63 K, Crystal of intercomponent compound 1, Small sample (50 mg) DSC, x2 = 0.81): 27.75 ± 0.68 J/K/mol
molar heat capacity at constant pressure (572.33 K, Crystal of intercomponent compound 2, Small sample (50 mg) DSC, x2 = 0.804): 28.21 ± 0.69 J/K/mol and 28.37 ± 0.69 J/K/mol
molar heat capacity at constant pressure (572.52 K, Crystal of intercomponent compound 1, Small sample (50 mg) DSC, x2 = 0.81): 27.31 ± 0.67 J/K/mol
molar heat capacity at constant pressure (572.54 K, Crystal of intercomponent compound 1, Small sample (50 mg) DSC, x2 = 0.81): 27.97 ± 0.69 J/K/mol
molar heat capacity at constant pressure (580 K, Crystal of intercomponent compound 1, relaxation calorimetry + DSC, x2 = 0.81): 27.6 ± 1.1 J/K/mol
molar heat capacity at constant pressure (580 K, Crystal of intercomponent compound 2, relaxation calorimetry + DSC, x2 = 0.804): 28.81 ± 1.2 J/K/mol
molar heat capacity at constant pressure (582.24 K, Crystal of intercomponent compound 2, Small sample (50 mg) DSC, x2 = 0.804): 28.41 ± 0.7 J/K/mol and 28.65 ± 0.7 J/K/mol
molar heat capacity at constant pressure (582.43 K, Crystal of intercomponent compound 1, Small sample (50 mg) DSC, x2 = 0.81): 27.53 ± 0.67 J/K/mol
molar heat capacity at constant pressure (582.45 K, Crystal of intercomponent compound 1, Small sample (50 mg) DSC, x2 = 0.81): 28.19 ± 0.69 J/K/mol
molar heat capacity at constant pressure (592.15 K, Crystal of intercomponent compound 2, Small sample (50 mg) DSC, x2 = 0.804): 28.65 ± 0.7 J/K/mol and 28.85 ± 0.71 J/K/mol
molar heat capacity at constant pressure (592.34 K, Crystal of intercomponent compound 1, Small sample (50 mg) DSC, x2 = 0.81): 27.86 ± 0.68 J/K/mol
molar heat capacity at constant pressure (592.36 K, Crystal of intercomponent compound 1, Small sample (50 mg) DSC, x2 = 0.81): 28.41 ± 0.7 J/K/mol
molar heat capacity at constant pressure (600 K, Crystal of intercomponent compound 1, relaxation calorimetry + DSC, x2 = 0.81): 28 ± 1.1 J/K/mol
molar heat capacity at constant pressure (600 K, Crystal of intercomponent compound 2, relaxation calorimetry + DSC, x2 = 0.804): 29.25 ± 1.2 J/K/mol
molar heat capacity at constant pressure (602.06 K, Crystal of intercomponent compound 2, Small sample (50 mg) DSC, x2 = 0.804): 28.86 ± 0.71 J/K/mol and 29.05 ± 0.71 J/K/mol
molar heat capacity at constant pressure (602.26 K, Crystal of intercomponent compound 1, Small sample (50 mg) DSC, x2 = 0.81): 28.19 ± 0.69 J/K/mol
molar heat capacity at constant pressure (602.27 K, Crystal of intercomponent compound 1, Small sample (50 mg) DSC, x2 = 0.81): 28.63 ± 0.7 J/K/mol
molar heat capacity at constant pressure (611.97 K, Crystal of intercomponent compound 2, Small sample (50 mg) DSC, x2 = 0.804): 29.02 ± 0.71 J/K/mol and 29.19 ± 0.72 J/K/mol
molar heat capacity at constant pressure (612.17 K, Crystal of intercomponent compound 1, Small sample (50 mg) DSC, x2 = 0.81): 28.3 ± 0.69 J/K/mol
molar heat capacity at constant pressure (612.18 K, Crystal of intercomponent compound 1, Small sample (50 mg) DSC, x2 = 0.81): 28.74 ± 0.7 J/K/mol
molar heat capacity at constant pressure (620 K, Crystal of intercomponent compound 1, relaxation calorimetry + DSC, x2 = 0.81): 28.43 ± 1.1 J/K/mol
molar heat capacity at constant pressure (620 K, Crystal of intercomponent compound 2, relaxation calorimetry + DSC, x2 = 0.804): 29.68 ± 1.2 J/K/mol
molar heat capacity at constant pressure (621.88 K, Crystal of intercomponent compound 2, Small sample (50 mg) DSC, x2 = 0.804): 29.19 ± 0.72 J/K/mol and 29.48 ± 0.72 J/K/mol
molar heat capacity at constant pressure (622.08 K, Crystal of intercomponent compound 1, Small sample (50 mg) DSC, x2 = 0.81): 28.41 ± 0.7 J/K/mol
molar heat capacity at constant pressure (622.09 K, Crystal of intercomponent compound 1, Small sample (50 mg) DSC, x2 = 0.81): 28.96 ± 0.71 J/K/mol
molar heat capacity at constant pressure (631.8 K, Crystal of intercomponent compound 2, Small sample (50 mg) DSC, x2 = 0.804): 29.46 ± 0.72 J/K/mol and 29.65 ± 0.73 J/K/mol
molar heat capacity at constant pressure (631.99 K, Crystal of intercomponent compound 1, Small sample (50 mg) DSC, x2 = 0.81): 28.74 ± 0.7 J/K/mol
molar heat capacity at constant pressure (632.01 K, Crystal of intercomponent compound 1, Small sample (50 mg) DSC, x2 = 0.81): 29.07 ± 0.71 J/K/mol
molar heat capacity at constant pressure (640 K, Crystal of intercomponent compound 1, relaxation calorimetry + DSC, x2 = 0.81): 28.9 ± 1.2 J/K/mol
molar heat capacity at constant pressure (640 K, Crystal of intercomponent compound 2, relaxation calorimetry + DSC, x2 = 0.804): 30.11 ± 1.2 J/K/mol
molar heat capacity at constant pressure (641.71 K, Crystal of intercomponent compound 2, Small sample (50 mg) DSC, x2 = 0.804): 29.67 ± 0.73 J/K/mol and 29.92 ± 0.73 J/K/mol
molar heat capacity at constant pressure (641.89 K, Crystal of intercomponent compound 1, Small sample (50 mg) DSC, x2 = 0.81): 28.96 ± 0.71 J/K/mol
molar heat capacity at constant pressure (641.92 K, Crystal of intercomponent compound 1, Small sample (50 mg) DSC, x2 = 0.81): 29.29 ± 0.72 J/K/mol
molar heat capacity at constant pressure (651.63 K, Crystal of intercomponent compound 2, Small sample (50 mg) DSC, x2 = 0.804): 29.86 ± 0.73 J/K/mol and 30.21 ± 0.74 J/K/mol
molar heat capacity at constant pressure (651.81 K, Crystal of intercomponent compound 1, Small sample (50 mg) DSC, x2 = 0.81): 29.07 ± 0.71 J/K/mol
molar heat capacity at constant pressure (651.84 K, Crystal of intercomponent compound 1, Small sample (50 mg) DSC, x2 = 0.81): 29.51 ± 0.72 J/K/mol
